Results published in US9676820B2, “Method for inhibiting proliferation of high LIX1L-expressing tumor cell, and tumor cell proliferation-inhibiting peptide” (National University Corporation Hamamatsu University School …, priority 2013, dated 2017).

How the values were obtained:
Type in all cases: cell-based
[1] = system: 293 FLG; experiment: MTT assay, 293 FLG cells
Description: (§1) Specifically, first, cells plated in a 96-well microplate such that the density thereof became 5×10^3 cells/well were cultured for one night in a culture solution having the same composition as those in the reference examples. […] After the culturing, an MTT-containing PBS solution was added to the culture solution, and the mixture was incubated for 4 hours. Then, formazan which was generated by putting 100 μL of isopropanol (containing 34 (v/v) % of hydrochloric acid) into each of the wells was dissolved. The absorbance of each of the wells of the microplate at 570 nm was measured using a microplate reader. As controls, culturing was performed in the same manner except that no peptide was added to the strains, an MTT assay was performed thereon, and the absorbance at 570 nm was measured (untreated).
(§2) In the method for measuring the viable cell counts, cells were cultured for 3 days similarly to Example 1 except that a 25 μM (10 μM for an HL-60 strain, a K562 strain, and a U937 strain) culture solution containing a control peptide or a peptide 1 was used, and the viable cell counts were measured. As a comparison, culturing was performed similarly to the above using a culture solution containing no peptide, and the viable cell counts were measured (untreated).
(§3) In addition, in the method for performing an MTT assay, cells were cultured for 72 hours similarly to Example 2 except that a peptide to be added to a strain was set to a control peptide or a peptide 1 at 25 μM (10 μM for an HL-60 strain, a K562 strain, and a U937 strain), an MTT assay was performed thereon, and the absorbance at 570 nm was measured. As a comparison, culturing was performed similarly to the above using a culture solution containing no peptide, and the MTT assay was performed thereon (untreated).
(§4) Specifically, the cells were cultured for 72 hours similarly to Example 2 except that a peptide to be added to a cell was set to a peptide 1, 2, 5, or 6, MTT assays were performed thereon, and the absorbance at 570 nm was measured. As a comparison, culturing was performed similarly to the above using a culture solution containing no peptide, and the MTT assay was performed thereon (untreated).
(§5) Specifically, the cells were cultured for 72 hours similarly to Example 2 except that peptides to be added to cell strains were set to peptides 7 to 14, MTT assays were performed thereon, and the absorbance at 570 nm was measured. […]
(§6) Specifically, the cells were cultured for 72 hours similarly to Example 2 except that a peptide to be added to a cell strain was set to a peptide 15 or 16, an MTT assay was performed thereon, and the absorbance at 570 nm was measured. […]

[2] = system: NUGC-4 strain; experiment: MTT assay, NUGC-4 strain
Description: as §1, §2, §3, §4, §5, §6

[3] = system: U937 strain; experiment: MTT assay, U937 strain
Description: Specifically, first, cells plated in a 96-well microplate such that the density thereof became 5×10^3 cells/well were cultured for one night in a culture solution having the same composition as those in the reference examples. Thereafter, the culture solution was exchanged with 100 μL of a culture solution of which the concentration of peptides is 0 μM to 100 μM for culturing for 72 hours. After the culturing, an MTT-containing PBS solution was added to the culture solution, and the mixture was incubated for 4 hours. Then, formazan which was generated by putting 100 μL of isopropanol (containing 34 (v/v) % of hydrochloric acid) into each of the wells was dissolved. The absorbance of each of the wells of the microplate at 570 nm was measured using a microplate reader. As controls, culturing was performed in the same manner except that no peptide was added to the strains, an MTT assay was performed thereon, and the absorbance at 570 nm was measured (untreated).
Specifically, the cells were cultured for 72 hours similarly to Example 2 except that a peptide to be added to a cell strain was set to peptide 1, 3, or 4, or a control peptide, an MTT assay was performed thereon, and the absorbance at 570 nm was measured.
as §2, §3

[4] = system: RPMI8226 strain; experiment: Viable cell counts (Trypan blue staining), RPMI8226 strain; conditions: 5 μM peptide, up to 72 hours, vs untreated
Description: Specifically, cells plated such that the density thereof became 1×10^4 cells/3.5 cm well for one plate (6 wells/plate) for each cell strain were cultured for one night in a culture solution having the same composition as those of the culture solutions described in the reference examples. After culturing of 1 well out of the 6 wells was completed, Trypan blue staining was performed on the 1 well, and viable cell counts were counted. The remaining 5 wells were cultured after exchanging the culture solution with a liquid mixture of a Lipofectamine (registered trademark) reagent (12.5 μL/well) and a culture solution (2 mL/well) of which the shRNA concentration became 2.5 μg/well. Then, Trypan blue staining was performed on 1 well 24 hours after the exchange of a culture medium, 1 well 48 hours after the exchange of a culture medium, and the remaining 1 well 72 hours after the exchange of a culture medium, and the viable cell counts were counted. As a control, the viable cell counts were measured (untreated) by performing the culturing similarly to the above except that a culture medium was exchanged with a culture solution to which no shRNA was added. […]

[5] = 72 hours, peptide concentrations up to 250 μM
[6] = peptide 25 μM, 3 days / 72 hours

CC(C)[C@H](NC(=O)[C@H](Cc1ccc(O)cc1)NC(=O)[C@H](CS)NC(=O)[C@@H](NC(=O)[C@H](Cc1ccc(O)cc1)NC(=O)[C@@H]1CCCN1C(=O)[C@@H]1CCCN1C(=O)[C@H](CO)NC(=O)[C@H](CC(N)=O)NC(=O)[C@H](CO)NC(=O)[C@@H]1CCCN1C(=O)CCCCCNC(=O)[C@H](CCCNC(=N)N)NC(=O)[C@H](CCCNC(=N)N)NC(=O)[C@H](CCCNC(=N)N)NC(=O)[C@H](CCC(N)=O)NC(=O)[C@H](CCCNC(=N)N)NC(=O)[C@H](CCCNC(=N)N)NC(=O)[C@H](CCCCN)NC(=O)[C@H](CCCCN)NC(=O)[C@H](CCCNC(=N)N)NC(=O)CNC(=O)[C@@H](N)Cc1ccc(O)cc1)C(C)C)C(N)=O [peptide 1, YGRKKRRQRRR-X-PSNSPPYVCYV-NH2]
cell proliferation (MTT assay, absorbance at 570 nm) [1, 5]: inhibited
cell proliferation (viable cell counts and MTT assay) [1, 6]: not inhibited
cell proliferation (MTT assay, absorbance at 570 nm) [2, 5]: inhibited
cell proliferation (viable cell counts and MTT assay) [2, 6]: not inhibited
absorbance at 570 nm (MTT assay), cell proliferation ([3]; peptide 0 μM to 100 μM, 72 hours): inhibited
cell proliferation (viable cell counts and MTT assay) ([3]; peptide 10 μM, 3 days / 72 hours): inhibited
viable cell counts [4]: the same as those in the untreated case
